Entries after “also recorded” stand apart in the source; their conditions may differ.
Experiments:
[1] = system: liver TG; settings: thyroxine treatment, cited from earlier work
[2] = system: mGPDH; assay: Liver mGPDH activity in isolated mitochondria, normal rats; type: in vivo; settings: normal Sprague-Dawley rats, 1 mg/kg/day continuous infusion, subcutaneous osmotic pump
Protocol: (§1) Methods: Normal rats (Sprague-Dawley) were maintained on a standard diet. Compounds 7, 17, 6, TRIAC or T3 were administered by continuous infusion using an osmotic pump (Alzet; subcutaneous implant) at a dose of 1 mg/kg/day. The compounds were dissolved in 0.1N NaOH solution and the pH adjusted to 7.4-8.0. The compounds were brought up to an appropriate volume using PBS and BSA to maintain solubility within the pump. The compounds were chemically stable in the excipient at 37° C. for 7 days. Body weights were measured and the change from the starting body weight was calculated. The 4.5% reported for the vehicle animals represent a 4.5% increase in body weight over the course of the experiment.
(§2) Sections of liver were removed and frozen. Liver triglycerides were analyzed following lipid extraction by the Bligh Dyer method (Bligh and Dyer, Can. J. Med. Sci. 37(8):911-7 (1959), incorporated herein by reference). Total triglycerides were analyzed in the liver extracts by an enzymatic assay (Thermo Electron Corporation). Total lipid was normalized to initial liver weight and triglyceride content was normalized to liver weight mGPDH activity was analyzed in isolated mitochondria using 2-(4-iodophenyl)-3-(4-nitrophenyl)-5-phenyl tetrazolium chloride as the terminal electron acceptor (Gardner R S, Analytical Biochemistry 59:272 (1974)). Commercially available GPDH was used in each assay as a standard (Sigma, St. Louis, Mo.).

[3] = system: liver triglycerides; assay: Liver triglycerides, chronic exposure in normal rats; type: in vivo, rats (Sprague-Dawley); settings: 1 mg/kg/day continuous infusion; for Triglycerides (mg/g liver): normal Sprague-Dawley rats, subcutaneous osmotic pump, one week; for Effect on liver (hepatic) triglyceride content, in words: normal rats, systemic administration
Text: The purpose of these studies was to compare the difference in efficacy to clear liver triglyceride content between T3 and various T3 mimetics that are carboxylic acids and T3 mimetics that are phosphonic acids. In one example, T3 and Compounds 7 and 17, which differ only in that for Compound 7, the X moiety of Formula II is —P(O)OH2 and for Compound 17, X is —C(O)OH, were compared. In the same example TRIAC and Compound 6, which differ only in that for Compound 6, X is —P(O)OH2 and for TRIAC, X is —C(O)OH, were compared. Efficacy was measured by analyzing total liver triglycerides.
as §1, §2

[4] = Body weight change, chronic exposure in normal rats; type: in vivo, rats (Sprague-Dawley); settings: 1 mg/kg/day continuous infusion; for Body Weight (% change from start): normal Sprague-Dawley rats, subcutaneous osmotic pump, one week; for Effect on body weight, in words: normal rats
Protocol: as §1

[5] = system: hepatic steatosis; assay: Liver steatosis (H&E sections) in ZDF rats; type: in vivo, Zucker diabetic fatty (ZDF) rats; settings: oral, CMC suspension
Protocol: Methods: ZDF rats were maintained on a standard diet (5008). Compounds cis-13-1 or 18 were administered orally at the indicated doses using a CMC suspension. Liver steatosis was analyzed visually following H&E staining of paraffin embedded liver sections. TSH was measured using a rodent specific kit (Amersham Biosciences). At the end of the experiment, the left ventricle was cannulated with a high fidelity catheter-tip transducer (Millar) via the right carotid artery. Left ventricle pressure, its first derivative (LV dP/dt), lead I ECG, and heart rate triggered off the ECG waveform, were recorded.

[6] = system: liver triglycerides; assay: Liver triglycerides, chronic exposure in ob/ob mice; type: in vivo
Protocol: as §2
The purpose of these studies was to compare the difference in efficacy to clear liver triglyceride content between Compound cis-13-1 and T3 in ob/ob mice.
(§3) Methods: ob/ob mice were maintained on a standard diet. Compound cis-13-1 was administered at doses of 3, 10 and 30 mg/kg/d orally in a CMC suspension. T3, 100 nmole/kg/d, was administered as an aqueous solution subcutaneously. Liver triglycerides were analyzed as described in example A. Epididymal fat pads were removed and weighed. Clinical chemistry analysis was performed by LabCorp (San Diego, Calif.).

[7] = system: thyroid-responsive genes in the liver; settings: T3-treated vs hypothyroid mice; cited from earlier work
[8] = system: hepatic steatosis; assay: Hepatic steatosis measured chemically and histologically in ob/ob mice; type: in vivo; settings: oral administration of cis-13-1
Protocol: as §3

[9] = Epididymal fat pad weight in ob/ob mice; type: in vivo
Protocol: as §3

[10] = T3 100 nmole/kg/d subcutaneously

Which “Decrease of liver TG” value ([1]; after one week) does the source give for `N[C@@H](Cc1cc(I)c(Oc2cc(I)c(O)c(I)c2)c(I)c1)C(=O)O` [thyroxine, 3,3′,5,5′-tetraiodothyronine] here?
Its value is 5 fold.

What about the “Rebound of liver TG” value ([1]; by the end of five weeks) of the same compound?
The value was 4 fold.

With `Cc1cc(OCP(=O)(O)O)cc(C)c1Cc1ccc(O)c(C(C)C)c1` [Compound 7] as the compound, how does the “Liver mGPDH activity (% vehicle)” value [2] read?
Its value is 399 ± 40 % vehicle.

What about the “Triglycerides (mg/g liver)” value [3] of the same compound?
Its value is 1.3 ± 0.4 mg/g liver.

What about the “Effect on liver (hepatic) triglyceride content, in words” value [3] of the same compound?
The value was “significant decrease in hepatic triglyceride content”.

And the “Body Weight (% change from start)” value [4]?
The value was 9.1 ± 1.5 % change from start.

What about the “Effect on body weight, in words” value [4] of the same compound?
Its value is “did not decrease body weight”.

What does the source list for `Cc1cc(OCC(=O)O)cc(C)c1Cc1ccc(O)c(C(C)C)c1` [Compound 17]?
Liver mGPDH activity (% vehicle) [2]: 426 ± 45 % vehicle; Triglycerides (mg/g liver) [3]: 1.8 ± 0.3 mg/g liver; Effect on liver (hepatic) triglyceride content, in words [3]: significant decrease in hepatic triglyceride content; Body Weight (% change from start) [4]: −5.4 ± 1.0 % change from start; Effect on body weight, in words ([4]; 1 mg/kg/day): decreased body weight; Effect on body weight, in words ([4]; listed as compound 17, 1 mg/kg/day): loss of body weight

With `CC(C)c1cc(Oc2c(Cl)cc(CC(=O)O)cc2Cl)ccc1O` [Compound 18] as the compound, how does the “Effect on hepatic steatosis (visual, H&E), in words” value [5] read?
Its value is “visually decreased hepatic steatosis compared to control”.

What does the source list for 3,3′,5′-triiodothyronine [Compound T3]?
Liver Trigs [6, 10]: 86 ± 5 mg/g; Effect on liver (hepatic) triglyceride content, in words ([6]; cis-13-1 oral 3, 10, 30 mg/kg/d, T3 100 nmole/kg/d s.c.): did not significantly decrease liver triglyceride content; Liver mGPDH activity (% vehicle) [2]: 406 ± 54 % vehicle; Fold, AM2 receptor [7]: 0.3 Fold; Fold, Actin, α cardiac [7]: 0.3 Fold; Fold, Actin, γ-enteric smooth muscle [7]: 0.3 Fold; Fold, Arylsulfatase A [7]: 0.3 Fold; Fold, B61 [7]: 2.3 Fold; Fold, Bcl-3 [7]: 2.5 Fold; Fold, C11 protein [7]: 0.3 Fold; Fold, Capping protein a-subunit [7]: 0.3 Fold; Fold, Carbonyl reductase (Cbr1) [7]: 3.3 Fold; Fold, Chromodomain-helicase-DNA binding protein CHD-1 [7]: 0.4 Fold; Fold, Cyp4a-10 [7]: 0.3 Fold; Fold, Cytoskeletal β-actin [7]: 0.3 Fold; Fold, EST [7]: 0.4 Fold; Fold, FK506-binding protein (FKBP23) [7]: 0.2 Fold; Fold, FK506-binding protein (FKBP65) [7]: 0.3 Fold; Fold, Fatty acid transport protein (FATP) [7]: 1.8 Fold; Fold, Glucose regulated protein 78 [7]: 0.3 Fold; Fold, Glucose-6-phosphatase [7]: 3.8 Fold; Fold, Glycerophosphate dehydrogenase [7]: 0.3 Fold; Fold, H-2 class I histocompatibility antigen [7]: 0.3 Fold; Fold, Inhibitory G protein of adenylate cyclase, α chain [7]: 0.3 Fold; Fold, Insulin-like growth factor binding protein 1 precursor [7]: 3.0 Fold; Fold, Kinesin-like protein (KipIp) [7]: 2.0 Fold; Fold, Lamin A [7]: 0.3 Fold; Fold, Lupus la protein homolog [7]: 0.3 Fold; Fold, Major urinary protein 2 precursor [7]: 3.9 Fold; Fold, Membrane-type matrix metalloproteinase [7]: 0.2 Fold; Fold, Mitochondrial genome [7]: 0.4 Fold; Fold, Murine vik5variant in the kinase [7]: 0.1 Fold; Fold, Myosin binding protein H (MyBP-H) [7]: 2.2 Fold; Fold, NfiB1-protein (exon 1-12) [7]: 0.3 Fold; Fold, Nuclear-encoded mitochondrial acyltransferase [7]: 0.2 Fold; Fold, PHAS-II [7]: 0.3 Fold; Fold, Protein kinase C inhibitor (mPKCl) [7]: 2.1 Fold; Fold, Protein kinase C, Θ type [7]: 0.3 Fold; Fold, Protein kinase ζ [7]: 0.5 Fold; Fold, Putative ATP-dependent RNA helicase PL10 [7]: 0.3 Fold; Fold, Putative SH3-containing protein SH3P12 [7]: 0.3 Fold; Fold, Putative transcription factor of the insulin gene [7]: 0.3 Fold; Fold, Rho-associated, coiled-coil forming protein kinase p160 [7]: 0.2 Fold; Fold, Serine/threonine kinase (Akt2) [7]: 0.3 Fold; Fold, Skeletal muscle actin [7]: 0.3 Fold; Fold, Spot 14 gene [7]: 8.8 Fold; Fold, T-complex protein 1, d subunit [7]: 0.3 Fold; Fold, TGN38B [7]: 0.3 Fold; Fold, Terminal deoxynucleotidyltransferase [7]: 0.3 Fold; Fold, Thymic stromal stimulating factor [7]: 0.3 Fold; Fold, Ubiquitin-activating enzyme E1 X [7]: 0.3 Fold; Fold, Virus-like (VL30) retrotransposon BVL-1 [7]: 0.3 Fold; Fold, ece1 (endothelin-converting enzyme) [7]: 0.2 Fold; Fold, α-2,3-Sialyltransferase [7]: 0.3 Fold; Fold, α-Adaptin [7]: 0.3 Fold; Fold, α-Globin [7]: 2.7 Fold; Fold, β-2 Adrenergic receptor [7]: 3.4 Fold; Fold, β-Galactoside α 2,6-sialyltransferase [7]: 0.3 Fold; Fold, β-Globin [7]: 2.3 Fold; Effect on hepatic steatosis measured chemically and histologically, in words [8]: no significant effect on hepatic steatosis; Triglycerides (mg/g liver) [3]: 3.6 ± 0.6 mg/g liver; Effect on liver (hepatic) triglyceride content, in words ([3]; 1 mg/kg/day): did not demonstrate a decrease in hepatic triglyceride content; also recorded: did not significantly decrease liver triglyceride content; EFP weight [9, 10]: 2.0 ± 0.1 g; Effect on epididymal fat pad (EFP) weight, in words ([9]; cis-13-1 oral, T3 100 nmole/kg/d s.c.): significantly decreased EFP weight; also recorded: significantly decreased epididymal fat pad weight; Body Weight (% change from start) [4]: −8.2 ± 1.5 % change from start; Effect on body weight, in words ([4]; 1 mg/kg/day): decreased body weight; also recorded: loss of body weight

Which “Liver mGPDH activity (% vehicle)” value [2] does the source give for `O=P(O)(O)Cc1cc(I)c(Oc2ccc(O)c(I)c2)c(I)c1` [Compound 6] here?
The value was 291 ± 37 % vehicle.

What about the “Triglycerides (mg/g liver)” value [3] of the same compound?
The value was 1.3 ± 0.2 mg/g liver.

And the “Effect on liver (hepatic) triglyceride content, in words” value [3]?
The value was “significant decrease in hepatic triglyceride content”.

What about the “Body Weight (% change from start)” value [4] of the same compound?
Its value is 8.7 ± 0.8 % change from start.

What about the “Effect on body weight, in words” value [4] of the same compound?
Its value is “did not decrease body weight”.

What does the source list for `O=C(O)Cc1cc(I)c(Oc2ccc(O)c(I)c2)c(I)c1` [TRIAC]?
Liver mGPDH activity (% vehicle) [2]: 384 ± 28 % vehicle; Triglycerides (mg/g liver) [3]: 1.5 ± 0.4 mg/g liver; Effect on liver (hepatic) triglyceride content, in words [3]: significant decrease in hepatic triglyceride content; Body Weight (% change from start) [4]: −1.7 ± 0.6 % change from start; Effect on body weight, in words ([4]; 1 mg/kg/day): decreased body weight; also recorded: loss of body weight
